Test results: US20220128542A1, “TREATMENT EFFICIENCY EVALUATION” (TX MEDIC AB, priority 2019, published 2022)

Tested on: Mouse cortical neurons
Assay: Gene expression array and pathway analysis in cortical neurons (Example 2)
Type: cell-based
Details: for differentially expressed genes: cortical neuron section (printed motor neurons)
Method: For each cell line, n=8×25 cm^2 culture flasks were set up. Two flasks were harvested for each cell type on the day of treatment (24 hours after seeding). This represents the Day0 time point. From the remaining flasks, three flasks were treated with Control Medium and three were treated with Culture Medium (CM) containing LMW-DS to give a final concentration of 0.01 mg/ml. Cells from the treated flasks were collected after 48 hours. Therefore the collected data represent (a) untreated cells (Day0 Controls and Day2 Controls) and (b) cells treated with LMW-DS for 48 hours (Day2 LMW-DS treated).
25 cm^2 flasks were coated by adding 2 ml per flask of a solution of 50 μg/ml poly-d-lysine in Hank's balanced salt solution (HBSS) and incubating overnight at 37° C. in the dark. Flasks were washed with cell culture water and air-dried for 30 min in the dark. Flasks were coated by adding 1 ml per flask of a solution of 25 μg/ml laminin in phosphate-buffered saline (PBS) and incubating for 2 hour at 37° C. in the dark. The laminin flasks were washed with PBS three times before plating cells.
Medium was prepared by adding 10 ml B-27 Serum-Free Supplement and 2.5 ml GlutaMAX™-I Supplement to 500 ml of Neurobasal medium. The medium was pre-warmed to 37° C. Cells from 12 vials were thawed sequentially in a 37° C. water bath for no longer than 2 min and gently transferred into a 15 ml tube. 9 ml of medium was gently added drop-wise to each. The cell suspension was mixed by inverting the tubes carefully twice.
The cells were centrifuged for 5 minutes at 200×g. Supernatant was removed (to the last 0.5 ml) and cells were gently re-suspended by trituration. The cells from the 12 vials were mixed and distributed equally into the previously coated 25 cm^2 flasks (n=8). Cells were incubated at 37° C. with 5% CO2 for 24 hours.
A fresh 100× LMW-DS stock (1.0 mg/ml) was prepared in sterile DMEM-F12. The concentrated drug stock was sterile filtered and added to the respective culture media (19.6 ml CM and 0.4 ml LMW-DS stock solution). The Control was made using 19.6 ml CM and 0.4 ml of DMEM-F12. LMW-DS and CM were added to the respective flasks (5 ml each) to reach the 0.01 mg/ml concentration of LMW-DS in each dish with a total of 10 ml CM each.
CM was aspirated into a clean and labelled 15 ml Falcon tube. The flasks (without culture medium) were placed into the −80° C. freezer for 30 minutes. The CM in the Falcon tubes was spun at 3000×g for 5 minutes. Supernatant was removed and the small pellet was re-suspended in 2.5 ml Trizol:Water (4:1) solution at room temperature (RT, ˜22° C.).
The frozen flasks were removed one-by one from the freezer and the Trizol-Water from the appropriate tubes was moved to the flask. Flasks were left at RT for 5 minutes before the content was aspirated back into the 15 ml Falcon tube (after washing the bottom of the flask with the solution thoroughly). The flasks were inspected under the microscope to ensure full removal of cells. The collected lysates in the 15 ml Falcon tubes were placed into the −80° C. freezer.
Falcon tubes containing the homogenates were removed from the freezer and stored for 5 minutes at RT to permit the complete dissociation of nucleoprotein complexes.
Two aliquots of 1 ml lysate were removed from each sample and 200 μl of chloroform was added to each (0.2 ml of chloroform per 1 ml of TRIzol Reagent used during the cell lysis step) and the tube was shaken vigorously. Samples were stored at RT for 2-3 minutes and subsequently centrifuged at 12,000×g for 15 minutes at 4° C.
The mixture separated into three layers: a lower red phenol-chloroform phase, an interphase and a colorless upper aqueous phase. The RNA remained in the top aqueous phase, DNA in the white middle (interphase) phase and protein in the pink bottom (organic) phase. The top ¾ of the aqueous phase was transferred to a new clean Eppendorf tube.
The RNA was precipitated from the aqueous phase by adding an equal amount of 100% ethanol. […]

[1] = cortical neurons, 0.01 mg/ml, 48 hours

sodium salt of dextran sulfate [LMW-DS]
differentially expressed genes (D0 control vs D2 LMW-DS treated, 0.01 mg/ml): 609 genes | differentially expressed genes (second comparison, printed as D0 control to D2 LMW-DS treated): 247 genes | number of genes: no effect / abolished nutrient effect [1]: 572 | number of genes: no effect / new effect induced by LMW-DS [1]: 19 | number of genes: no effect / total [1]: 591 | number of genes: significant downregulation / abolished nutrient effect [1]: 7 | number of genes: significant downregulation / enhanced response to nutrients [1]: 158 | number of genes: significant downregulation / new effect induced by LMW-DS [1]: 22 | number of genes: significant downregulation / not different from control [1]: 95 | number of genes: significant downregulation / total [1]: 282 | number of genes: significant upregulation / abolished nutrient effect [1]: 33 | number of genes: significant upregulation / enhanced response to nutrients [1]: 43 | number of genes: significant upregulation / new effect induced by LMW-DS [1]: 7 | number of genes: significant upregulation / not different from control [1]: 221 | number of genes: significant upregulation / total [1]: 304 | number of genes: total / abolished nutrient effect [1]: 612 | number of genes: total / enhanced response to nutrients [1]: 612 | number of genes: total / new effect induced by LMW-DS [1]: 48 | number of genes: total / not different from control [1]: 316 | number of genes: total / total [1]: 1177
